The source of these data is PubChem BioAssay (NCI).

Some test systems named below: OVCAR-8 ovarian; SK-MEL-28 melanoma; UACC-257 melanoma; DLD-1 colon; SNB-78 CNS; SF-295 CNS; MALME-3M melanoma; HS 578T breast; T-47D breast; PC-3 prostate.
Holding throughout (experiment): DTP human tumour cell line panel, 48 h

Several values for one entry are separate records, joined by “and”; a condition that tells them apart may be missing. Identical values can stand only once.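 Cultured in 96-well plates, cells were exposed to test compound for 48 hours across five concentrations. GI50 = concentration required for 50% inhibition of growth. TGI denotes the concentration required for complete inhibition of growth.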

On to `CCOC(=O)/C(O)=C(/c1n[nH]c(=O)c2ccccc12)[N+](=O)[O-]`, for which the TGI in the assay on OVCAR-8 ovarian, with SK-MEL-28 melanoma, in the assay on UACC-257 melanoma, in the assay with DLD-1 colon, in the assay with SNB-78 CNS and in the assay on SF-295 CNS was > 100 µM each time. In the assay with MALME-3M melanoma, the total growth inhibition concentration (TGI) is > 100 µM.

`COC(=O)C1=C(O)c2cc(OC)c(OC)c(OC)c2[C@H](c2cc(OC)c(OC)c(OC)c2)C1C(=O)OC` (some centres not stated): the TGI with OVCAR-8 ovarian was > 100 µM; with SK-MEL-28 melanoma it was > 100 µM; with UACC-257 melanoma, > 100 µM; in the assay on DLD-1 colon, > 100 µM; in the assay with SNB-78 CNS, > 100 µM; in the assay on SF-295 CNS, 98.1 µM. In addition, the TGI with MALME-3M melanoma is > 100 µM.

Take `O=S(=O)(O)O.[NH-]C1CCCCC1[NH-].[Pt+2]` (configuration not stated): the GI50 is 80.1 µM in the assay with OVCAR-8 ovarian; > 100 µM with SK-MEL-28 melanoma; > 100 µM in the assay on UACC-257 melanoma; 27.8 µM with DLD-1 colon; > 100 µM in the assay with SNB-78 CNS; > 100 µM in the assay with SF-295 CNS. Further, the GI50 in the assay with MALME-3M melanoma was 50.2 µM. Further, the total growth inhibition concentration (TGI) in the assay with OVCAR-8 ovarian, with SK-MEL-28 melanoma, in the assay on UACC-257 melanoma, with DLD-1 colon, in the assay on SNB-78 CNS and in the assay on SF-295 CNS was > 100 µM in each case. Moreover, in the assay on MALME-3M melanoma, the TGI was > 100 µM.

Take `O=c1cccccc1NCCOCCNc1cccccc1=O`: the TGI with OVCAR-8 ovarian, in the assay on SK-MEL-28 melanoma, with UACC-257 melanoma, in the assay on DLD-1 colon, in the assay on SNB-78 CNS and with SF-295 CNS was > 100 µM each time. Also, the total growth inhibition concentration (TGI) with MALME-3M melanoma is > 100 µM.

Consider `Cc1[nH]c2ccccc2c1C1Cc2ccccc2N1C(=O)/C=C/C=C/c1ccccc1` (configuration not stated), for which the TGI in the assay with OVCAR-8 ovarian, in the assay on SK-MEL-28 melanoma, in the assay on UACC-257 melanoma, in the assay with DLD-1 colon, in the assay with SNB-78 CNS and in the assay with SF-295 CNS was > 100 µM in each case. Besides, the concentration for total growth inhibition (TGI) in the assay with MALME-3M melanoma is > 100 µM.

Consider `CCOC(C)C(/C=N/NC(N)=S)=NNC(N)=S` (configuration not stated), for which the TGI in the assay on OVCAR-8 ovarian, with SK-MEL-28 melanoma, in the assay on UACC-257 melanoma, with DLD-1 colon, in the assay on SNB-78 CNS and with SF-295 CNS was > 100 µM each time. In the assay with MALME-3M melanoma, the TGI is > 100 µM.

For the compound `Cc1cc(O)cc2oc(=O)c3c(O)cc(O)cc3c12`, the TGI is > 100 µM with OVCAR-8 ovarian; > 100 µM with SK-MEL-28 melanoma; > 100 µM with UACC-257 melanoma; > 100 µM in the assay with DLD-1 colon; > 100 µM with SNB-78 CNS; 63.6 µM with SF-295 CNS. The concentration for total growth inhibition (TGI) in the assay on MALME-3M melanoma is > 100 µM.

For `COC(=O)C1=C2CCC(=O)[C@@]2(C)C(OC(C)=O)C=CC1` (some centres not stated), the TGI with OVCAR-8 ovarian, with SK-MEL-28 melanoma, in the assay on UACC-257 melanoma, in the assay on DLD-1 colon, with SNB-78 CNS and with SF-295 CNS was > 100 µM throughout. Besides, the TGI in the assay with MALME-3M melanoma was > 100 µM.

With `COc1ccc(C(=O)C(c2ccc(OC)cc2)C2(O)C(=O)Nc3ccccc32)cc1` (configuration not stated), the total growth inhibition concentration (TGI) in the assay with SK-MEL-28 melanoma, in the assay with UACC-257 melanoma, with DLD-1 colon, in the assay on SNB-78 CNS, with SF-295 CNS and in the assay with MALME-3M melanoma was > 100 µM in each case.

For the compound `Cc1c(Cl)ccc2c1NC(=O)C2(O)C(C(=O)c1ccccc1)c1ccccc1` (configuration not stated), the TGI was > 100 µM with OVCAR-8 ovarian; > 100 µM in the assay with SK-MEL-28 melanoma; 89 µM in the assay on UACC-257 melanoma; > 100 µM in the assay with DLD-1 colon; > 100 µM in the assay with SNB-78 CNS; 92.6 µM with SF-295 CNS. Besides, the TGI in the assay on MALME-3M melanoma is > 100 µM.

Consider `CCC(C)(C)C(=O)O[C@H]1C[C@@H](C)C=C2C=C[C@H](C)[C@H](CC[C@@H]3C[C@@H](O)CC(=O)O3)[C@H]21`, for which the GI50 was 2.7 µM in the assay on HS 578T breast; 5.05 µM with SK-MEL-28 melanoma; 10.8 µM in the assay on UACC-257 melanoma; 11.9 µM with T-47D breast; 0.434 µM with SF-295 CNS; 0.367 µM in the assay with PC-3 prostate. The GI50 in the assay on MALME-3M melanoma is 13.9 µM. For the same compound, the TGI in the assay with HS 578T breast was 16.4 µM; with OVCAR-8 ovarian it was 18.2 µM and 20.6 µM; in the assay on SK-MEL-28 melanoma, 18.8 µM and > 30 µM; in the assay on UACC-257 melanoma it was 25 µM and > 30 µM; with DLD-1 colon it was > 30 µM; in the assay on SNB-78 CNS, > 30 µM. The TGI in the assay on T-47D breast was 28.2 µM; in the assay on SF-295 CNS, 8.03 µM and 2.61 µM; with PC-3 prostate, 14.5 µM; in the assay on MALME-3M melanoma, 30.5 µM.

With `Cc1ccc(NC(=O)C(=O)C2C(=O)N(c3ccccc3)N=C2N)cc1C` (configuration not stated), the concentration for total growth inhibition (TGI) in the assay with OVCAR-8 ovarian, with SK-MEL-28 melanoma, in the assay with UACC-257 melanoma, with DLD-1 colon, with SNB-78 CNS and in the assay with SF-295 CNS was > 100 µM throughout. Moreover, the TGI in the assay with MALME-3M melanoma is > 100 µM.

With `[O-]c1c2c(nn1-c1ccccc1)c1ccccc1c[n+]2Cc1ccccc1`, the concentration for total growth inhibition (TGI) in the assay on OVCAR-8 ovarian, with SK-MEL-28 melanoma, in the assay with UACC-257 melanoma, in the assay on DLD-1 colon, in the assay on SNB-78 CNS and in the assay with SF-295 CNS was > 100 µM in each case. The total growth inhibition concentration (TGI) with MALME-3M melanoma was > 100 µM.

For the compound `CC(=O)OC(/C=C1/C=CC(=O)O1)COC(=O)c1ccccc1` (configuration not stated), the TGI in the assay on OVCAR-8 ovarian, in the assay with SK-MEL-28 melanoma, with UACC-257 melanoma, in the assay with DLD-1 colon, with SNB-78 CNS and in the assay with SF-295 CNS was > 31.2 µM each time. Besides, the TGI in the assay with MALME-3M melanoma was > 31.2 µM.

Turning to `COC(=O)NC1C(C)OC(OC2C/C=C(/C)C3C=CC4C(OC5CC(OC6CC(O)C(OC7CC(O)C(OC)C(C)O7)C(C)O6)C(O)C(C)O5)C(C)CC(C)C4C3(C)/C(O)=C3\C(=O)OC4(CC(C)C(CO)=CC4/C=C\2C)C3=O)CC1(C)[N+](=O)[O-]` (configuration not stated), the TGI in the assay on HS 578T breast was 40.4 µM; with OVCAR-8 ovarian, 20.7 µM and 32.3 µM; in the assay with SK-MEL-28 melanoma it was 16.6 µM and 36 µM; in the assay with UACC-257 melanoma, 16.4 µM and 29.4 µM; with DLD-1 colon it was 40.4 µM; with SNB-78 CNS, 29.8 µM. The TGI with T-47D breast was 31.8 µM; with SF-295 CNS it was 50 µM and 38.9 µM; in the assay on PC-3 prostate, 50 µM; in the assay with MALME-3M melanoma, 15.8 µM and 17.8 µM. In addition, the GI50 in the assay on SK-MEL-28 melanoma was 9 µM; in the assay on UACC-257 melanoma, 8.28 µM; with MALME-3M melanoma it was 8.88 µM.

What is called TGI is the concentration at which net growth stops. A word on the GI50: it is the concentration giving 50% growth inhibition.
